The values below come from US9469645B2, “Compounds and compositions for the treatment of parasitic diseases” (Novartis AG, priority 2009, dated 2016).

One assay deals with 3D7 P. falciparum strain. Kind of assay: parasite proliferation assay in infected red blood cells (SYBR Green I). The class given is cell-based, Plasmodium falciparum. The settings on record: Plasmodium falciparum, 3D7, Erythrocyte, 3D7 strain; read-out: EC50 3D7 strain. In short, it runs like this: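 P. falciparum 3D7 grown in O+ human erythrocytes to 3–8% parasitemia and exposed to compounds. Proliferation read as the increase in parasite DNA. Detection used SYBR Green I in saponin/triton-X/EDTA lysis buffer, with overnight lysis at room temperature.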

The next assay has as its system W2 strain. Kind of assay: parasite proliferation assay in infected red blood cells (SYBR Green I), W2 strain. The class given is cell-based. As to conditions: Erythrocyte. An excerpt:
Compounds of the invention can be assayed to measure their capacity to inhibit proliferation of parasitemia in infected red blood cells. The proliferation is quantified by the addition of SYBR Green I (INVITROGEN)® dye which has a high affinity for double stranded DNA.

Molecules are shown by their SMILES.

In the case of `CC1(C)c2nc(-c3ccc(F)cc3)c(Oc3ccc(F)cc3)n2CCN1C(=O)CN` [Compound 709, 2-amino-1-(3-(4-fluorophenoxy)-2-(4-fluorophenyl)-8,8-dimethyl-5,6-dihydroimidazo[1,2-a]pyrazin-7(8H)-yl)ethanone], the results for the EC50 with 3D7 P. falciparum strain and in the assay with W2 strain (Plasmodium falciparum) were 3 nM and 8 nM, respectively.
As for `NCC(=O)N1CCn2c(nc(-c3cccc(F)c3)c2Nc2ccc(Cl)c(F)c2)C1` [Compound 228], the figures for the EC50 in the assay with 3D7 P. falciparum strain and in the assay with W2 strain were 10 nM and 8 nM, respectively.
`NCC(=O)N1CCn2c(nc(-c3ccc(Br)cc3)c2Nc2ccc(F)cc2)C1` [Compound 54]: the EC50 in the assay with 3D7 P. falciparum strain is 1290 nM; in the assay with W2 strain, 764 nM.
For the compound `CCCNCC(=O)N1CCn2c(nc(-c3ccc(F)cc3)c2Nc2ccc(C)cc2)C1` [Compound 307], the results for the EC50 with 3D7 P. falciparum strain and in the assay on W2 strain were 30 nM and 22 nM, respectively.
`CC1(C)c2nc(-c3ccc(F)cc3)c(NC3CCC(c4ccccc4)CC3)n2CCN1C(=O)CN` (centres unmarked) [Compound 661]: the figures for the EC50 in the assay with 3D7 P. falciparum strain and in the assay with W2 strain (Plasmodium falciparum) were 339 nM and 520 nM, respectively.
In the case of `C[C@H](N)C(=O)N1CCn2c(nc(-c3ccc(F)cc3)c2Nc2ccc(F)cc2)C1` [Compound 17], the results for the EC50 in the assay on 3D7 P. falciparum strain and in the assay with W2 strain were 90 nM and 64 nM, respectively.
In the case of `CC1(C)NCCn2c1nc(-c1ccc(F)cc1)c2C(=O)Nc1ccc(F)cc1` [Compound 707, N,2-bis(4-fluorophenyl)-8,8-dimethyl-5,6,7,8-tetrahydroimidazo[1,2-a]pyrazine-3-carboxamide], the EC50 is 6540 nM with 3D7 P. falciparum strain and over 10000 nM in the assay on W2 strain (Plasmodium falciparum).
The like results for `CC1(C)c2nc(-c3ccc(F)cc3)c(Cc3ccc(F)cc3)n2CCN1C(=O)CN` [Compound 693] were, in that order, 8 nM and 8 nM.
For the compound `CC(C)[C@@H](O)C(=O)N1CCn2c(nc(-c3ccc(F)cc3)c2Nc2ccc(Cl)c(F)c2)C1` [Compound 360], the EC50 with 3D7 P. falciparum strain came out at 30 nM; in the assay on W2 strain, 15 nM.
In the case of `CC(C)(N)C(=O)N1CCn2c(nc(C3CCCCC3)c2Nc2ccc(F)cc2)C1` [Compound 15], the EC50 was 2630 nM in the assay with 3D7 P. falciparum strain and 2110 nM in the assay on W2 strain.
On to `CC1(C)c2nc(-c3ccc(F)cc3)c([S+]([O-])c3ccc(Cl)cc3)n2CCN1C(=O)CN` (centres unmarked) [Compound 724], for which the EC50 was found to be 509 nM in the assay with 3D7 P. falciparum strain and 287 nM in the assay on W2 strain (Plasmodium falciparum).
Regarding `Cc1ccc(Nc2c(-c3cccc(C)c3)nc3n2CCNC3)cc1` [Example 266, 2-m-tolyl-N-p-tolyl-5,6,7,8-tetrahydroimidazo[1,2-a]pyrazin-3-amine], the EC50 with 3D7 P. falciparum strain came to 1170 nM; in the assay on W2 strain it was 1310 nM.
In the case of `Fc1ccc(-c2nc3n(c2Nc2ccc(Cl)c(F)c2)CCCC3)cc1` [Compound 749], the EC50 worked out at 1050 nM with 3D7 P. falciparum strain and 814 nM in the assay with W2 strain (Plasmodium falciparum).
On to `Cc1ccc(Nc2c(-c3ccc(F)cc3)nc3n2CCN(C(=O)[C@@H]2CC(=O)N2)C3)cc1` [Compound 162], for which the EC50 was determined as 1780 nM with 3D7 P. falciparum strain and 1380 nM in the assay with W2 strain.
As for `CN[C@@H](CC(C)C)C(=O)N1CCn2c(nc(-c3ccc(F)cc3)c2Nc2ccc(C)cc2)C1` [Compound 378], the EC50 in the assay with 3D7 P. falciparum strain came to 60 nM; in the assay with W2 strain, 63 nM.
As to `CC1(C)c2nc(-c3ccc(F)cc3)c(Sc3ccc(Cl)cc3)n2CCN1C(=O)CN` [Compound 716], the values for the EC50 in the assay with 3D7 P. falciparum strain and in the assay with W2 strain (Plasmodium falciparum) were 2 nM and 1 nM, respectively.
Consider `Cc1ccc(Nc2c(-c3ccc(F)cc3)nc3n2CCN(C(=O)CNc2ccc(C)cc2C)C3)cc1` [Compound 384], for which the EC50 in the assay on 3D7 P. falciparum strain was 470 nM; in the assay with W2 strain, 889 nM.
On to `O=C(CN1CCCC(F)(F)C1)N1CCn2c(nc(-c3ccc(F)cc3)c2Nc2ccc(F)cc2)C1` [Compound 43], for which the EC50 worked out at 180 nM in the assay with 3D7 P. falciparum strain and 149 nM with W2 strain.
Consider `O=C(CN1CCC(F)(F)CC1)N1CCn2c(nc(-c3ccc(F)cc3)c2Nc2ccc(F)cc2)C1` [Compound 62], for which the EC50 with 3D7 P. falciparum strain and in the assay with W2 strain was 4740 nM throughout.
As for `Cc1ccc(Nc2c(-c3ccc(F)cc3)nc3ccc(C)cn23)cc1` [Compound 748], the results for the EC50 with 3D7 P. falciparum strain and in the assay on W2 strain (Plasmodium falciparum) were 3440 nM and 4150 nM, respectively.
For the compound `CC(C)(N)C(=O)N1CCn2c(nc(-c3ccccc3F)c2Nc2ccc(F)cc2)C1` [Compound 10], the EC50 in the assay on 3D7 P. falciparum strain was determined as 1390 nM; in the assay on W2 strain, 1280 nM.
Consider `CC(C)(N)C(=O)N1CCn2c(nc(-c3ccc(F)cc3)c2Nc2ccc(F)cc2F)C1` [Compound 79], for which the figures for the EC50 with 3D7 P. falciparum strain and in the assay on W2 strain were 110 nM and 90 nM, respectively.
For the compound `O=C(CN1CCCC(O)C1)N1CCn2c(nc(-c3ccc(F)cc3)c2Nc2ccc(F)cc2)C1` (centres unmarked) [Compound 64], the figures for the EC50 in the assay on 3D7 P. falciparum strain and in the assay on W2 strain were 9370 nM and 6460 nM, respectively.
Take `NC1(C(=O)N2CCn3c(nc(-c4ccc(F)cc4)c3Nc3ccc(F)cc3)C2)CC1` [Compound 45]: the EC50 in the assay on 3D7 P. falciparum strain was 980 nM; in the assay on W2 strain, 1340 nM.
The corresponding values for `Cc1ccc(Nc2c(-c3ccc(F)cc3)nc3n2CCN(C(=O)[C@@H](O)CC(C)C)C3)cc1` [Compound 134] are 10 nM and 7 nM.
For `O=C(CNC1CC1)N1CCn2c(nc(-c3ccc(F)cc3)c2Nc2ccc(F)cc2)C1` [Compound 68], the EC50 in the assay on 3D7 P. falciparum strain was 150 nM; in the assay on W2 strain it was 264 nM.
Take `Cc1ccc(-c2c(-c3ccc(Cl)cc3)nc3cnccn23)cc1` [Compound 24]: the EC50 with 3D7 P. falciparum strain was determined as 8920 nM; in the assay on W2 strain, 2860 nM.
For `Cc1ccc(Nc2c(-c3ccc(F)cc3)nc3n2CCN(C(=O)C(c2ccccc2)C2CCCC2)C3)cc1` (centres unmarked) [Compound 226], the EC50 with 3D7 P. falciparum strain turned out to be 480 nM; in the assay on W2 strain it was 348 nM.
For the compound `CC(=O)NCC(=O)N1CCn2c(nc(-c3ccc(F)cc3)c2Nc2ccc(F)cc2)C1` [Compound 25], the EC50 in the assay with 3D7 P. falciparum strain is over 10600 nM; in the assay on W2 strain it was 4350 nM.
Turning to `NCC(=O)N1CCn2c(nc(-c3ccc(F)cc3)c2Nc2ccc(F)cc2F)C1` [Compound 80], the values for the EC50 with 3D7 P. falciparum strain and in the assay with W2 strain were 60 nM and 63 nM, respectively.
For the compound `NCC(=O)N1CCn2c(nc(-c3ccc(F)cc3)c2Nc2cccc(F)c2)C1` [Compound 36], the results for the EC50 in the assay with 3D7 P. falciparum strain and with W2 strain were 50 nM and 34 nM, respectively.
Take `Cc1ccc(-c2c(-c3ccc(F)cc3)nc3n2CCN(C(=O)CN)C3(C)C)cc1` [Compound 704, 2-amino-1-(2-(4-fluorophenyl)-8,8-dimethyl-3-p-tolyl-5,6-dihydroimidazo-[1,2-a]pyrazin-7(8H)-yl)ethanone]: the values for the EC50 in the assay with 3D7 P. falciparum strain and in the assay on W2 strain (Plasmodium falciparum) were 236 nM and 232 nM, respectively.
Regarding `CCCN(CCC)[C@@H](C)C(=O)N1CCn2c(nc(-c3ccc(F)cc3)c2Nc2ccc(C)cc2)C1` [Compound 148], the EC50 in the assay with 3D7 P. falciparum strain is 4060 nM; in the assay with W2 strain, 1430 nM.
In the case of `CC(C)(N)C(=O)N1CCn2c(nc(-c3ccc(F)cc3)c2Nc2ccc(Br)cc2)C1` [Compound 21], the EC50 with 3D7 P. falciparum strain came out at 100 nM; in the assay with W2 strain, 78 nM.
The like results for `CN1CCOC(C(=O)N2CCn3c(nc(-c4ccc(F)cc4)c3Nc3ccc(Cl)c(F)c3)C2)C1` (centres unmarked) [Compound 372] were, in that order, 690 nM and 554 nM.
Regarding `CC(C)(N)C(=O)N1CCn2c(nc(-c3ccc(F)cc3)c2Nc2ccc(OC(F)(F)F)cc2)C1` [Compound 643], the EC50 was determined as 2800 nM with 3D7 P. falciparum strain and 2170 nM in the assay on W2 strain (Plasmodium falciparum).
In the case of `O=C(CN1CC[C@H](F)C1)N1CCn2c(nc(-c3ccc(F)cc3)c2Nc2ccc(F)cc2)C1` [Compound 59], the figures for the concentration giving a half-maximal response (EC50) with 3D7 P. falciparum strain and in the assay with W2 strain were 1090 nM and 735 nM, respectively.

A word on the EC50: it is the concentration giving half of the maximal effect.
